Usually Kd stands for the concentration at which binding is half-saturated. As a reminder, the IC50 is the midpoint of a concentration-inhibition curve.

Data on three molecules can be found in article PMC9845707, “Involvement of three chemosensory proteins in perception of host plant volatiles in the tea green leafhopper, Empoasca onukii” (Frontiers in Physiology, 2023).

The target of assay [1] is EonuCSP4 (Empoasca onukii, UniProt A0A343WGZ9). Nature of the assay: Competitive fluorescence binding assay (1-NPN probe) with recombinant EonuCSP4. The method, then:
(§1) N-phenyl-1-naphthylamine (1-NPN) was used as the fluorescent probe. The excitation wavelength in the fluorescence spectrometer was set to 337 nm, which was the results of an optimization that we achieved in lab. The scanning wavelength was 420–600 nm.
(§2) The tested chemicals were dissolved in methanol in preparation for 1 mM stock solution. […] We determined the binding constants of 1-NPN by Scatchard formula. […] The binding affinities of the competitors were evaluated from the corresponding IC50 according to the equation: K i = IC50/(1 + [1-NPN]/K1-NPN).

Assay [2] addresses EonuCSP6-2 (Empoasca onukii, UniProt A0A343WH13). Nature of the assay: Competitive fluorescence binding assay (1-NPN probe) with recombinant EonuCSP6-2. Here is the method:
as §1, §2

In assay [3] the target is EonuCSP 6-1 (Empoasca onukii, UniProt A0A343WH12). The assay is described as follows: Competitive fluorescence binding assay (1-NPN probe) with recombinant EonuCSP6-1. Here is the method:
as §1, §2

Assay [4] concerns E. onukii adults. Nature of the assay: Y-tube olfactometer assay (behavioral response). It counts as in vivo, Empoasca onukii. The following applies: 20 μL of 10 μg/μL in methanol, 90 adults per volatile. The method, then: We use a Y-tube olfactometer (1.5 cm in diameter, arms with 8 cm length, and a stem with 18 cm length) to detect the behavioral response of E. onukii to volatiles. The incoming air to the tube was firstly filtered using active carbon and then humidified with the ultrapure water. The air through the arms was blown at a constant flow ([…]). A total of 20 μL tested volatile oil (10 μg/μL in methanol (HPLC)) pipetted onto 1 cm diameter filter paper. This filter paper was placed in the chamber, which connected to one arm of the Y-tube olfactometer. As control, the same filter paper treated with 20 μL of methanol was placed in the chamber connected to another arm of the Y-tube. This experiment was performed in the dark room, which employed a light-emitting diode as the light source. Each adult was introduced into the middle of the stem of the Y-tube and the individuals that made a choice within 8 min were recorded. Individuals moving toward the odorant source for half of the arm distance and stayed for 1 minute were recorded as odorant choice. For each volatile component, 90 adult were used. After 10 insects were tested, the Y-tube olfactometer was washed with 75% ethanol and air-dried, and tested volatiles were placed in another arm for the subsequent tests.

Chain of EonuCSP 6-1 (A0A343WH12 entry or part of it): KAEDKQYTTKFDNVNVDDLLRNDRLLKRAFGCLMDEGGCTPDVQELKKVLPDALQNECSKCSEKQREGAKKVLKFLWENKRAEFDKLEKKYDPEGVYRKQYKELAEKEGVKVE
Chain of EonuCSP4 (A0A343WGZ9 entry or part of it): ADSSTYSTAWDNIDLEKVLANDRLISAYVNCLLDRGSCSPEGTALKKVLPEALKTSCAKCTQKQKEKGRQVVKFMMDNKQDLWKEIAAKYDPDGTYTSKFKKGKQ
Chain of EonuCSP6-2 (A0A343WH13 entry or part of it): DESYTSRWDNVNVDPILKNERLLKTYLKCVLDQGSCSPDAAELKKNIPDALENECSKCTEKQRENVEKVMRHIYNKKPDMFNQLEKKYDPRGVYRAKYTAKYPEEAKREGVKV

Turning to `c1ccc(Nc2cccc3ccccc23)cc1` [1-NPN, N-phenyl-1-naphthylamine], the Kd in assay [1] stood at 11 µM; in assay [2] it was 10.2 µM; in assay [3], 12.5 µM.
As for `O=Cc1ccccc1` [Benzaldehyde], the “behavioral response of E. onukii adults (choice versus methanol control)” value in assay [4] was “significant preference”. Also, in assay [3], the IC50 is over 20 µM.
With `CC/C=C\CCOC(=O)CCCC` [Cis-3-Hexenyl n-valerate], in assay [4], the “behavioral response of E. onukii adults (choice versus methanol control)” value was “significant preference”.
